Source: the supplement of paper PMC5908809

What was measured:
[1] = system: normal NK cells expanded with K562-aAPC; experiment: drug sensitivity score (DSS) (DSS units); higher = more sensitive; extreme values may be limits of the assay; settings: 72 h; IL-2 2.5 ng/mL
Description: (§1)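 Drug sensitivity and resistance testing on K562-aAPC-expanded normal NK cells: 5 concentrations (10-fold steps over a 10,000-fold range), 72 h at 37 °C, viability by CellTiter-Glo normalised to DMSO and benzethonium chloride controls; DSS from the fitted curve.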

[2] = system: normal primary NK cells, pool 1 (3 donors) (IL-2 2.5 ng/mL); experiment: percent inhibition of viability; higher = more inhibition; settings: 72 h
[3] = system: normal primary NK cells, pool 3 (3 donors) (IL-2 2.5 ng/mL); experiment: as above; settings: 72 h
[4] = system: YT (IL-2 2.5 ng/mL); experiment: as above; settings: 72 h
[5] = system: normal primary NK cells, pool 1 (3 donors), resting (IL-2 0 ng/mL); experiment: as above; settings: 72 h
[6] = system: NKL (IL-2 2.5 ng/mL); experiment: as above; settings: 72 h
[7] = system: IMC-1 (IL-2 20 ng/mL); experiment: as above; settings: 72 h
[8] = system: DERL-7 (IL-2 2.5 ng/mL); experiment: as above; settings: 72 h
[9] = system: NK-YS (IL-2 2.5 ng/mL); experiment: as above; settings: 72 h
[10] = system: KAI3 (IL-2 2.5 ng/mL); experiment: as above; settings: 72 h
[11] = system: NK-92 (IL-2 2.5 ng/mL); experiment: as above; settings: 72 h
[12] = system: KHYG-1 (IL-2 2.5 ng/mL); experiment: as above; settings: 72 h
[13] = system: normal primary NK cells, pool 2 (3 donors) (IL-2 2.5 ng/mL); experiment: as above; settings: 72 h
[14] = system: SNK-6 (IL-2 2.5 ng/mL); experiment: as above; settings: 72 h
[15] = system: normal primary NK cells, pool 1 (3 donors) (IL-2 2.5 ng/mL); experiment: drug sensitivity score (DSS) (DSS units); higher = more sensitive; extreme values may be limits of the assay; settings: 72 h
[16] = system: normal primary NK cells, pool 3 (3 donors) (IL-2 2.5 ng/mL); experiment: as above; settings: 72 h
[17] = system: YT (IL-2 2.5 ng/mL); experiment: as above; settings: 72 h
[18] = system: normal primary NK cells, pool 1 (3 donors), resting (IL-2 0 ng/mL); experiment: as above; settings: 72 h
[19] = system: NKL (IL-2 2.5 ng/mL); experiment: as above; settings: 72 h
[20] = system: IMC-1 (IL-2 20 ng/mL); experiment: as above; settings: 72 h
[21] = system: DERL-7 (IL-2 2.5 ng/mL); experiment: as above; settings: 72 h
[22] = system: NK-YS (IL-2 2.5 ng/mL); experiment: as above; settings: 72 h
[23] = system: KAI3 (IL-2 2.5 ng/mL); experiment: as above; settings: 72 h
[24] = system: NK-92 (IL-2 2.5 ng/mL); experiment: as above; settings: 72 h
[25] = system: KHYG-1 (IL-2 2.5 ng/mL); experiment: as above; settings: 72 h
[26] = system: normal primary NK cells, pool 2 (3 donors) (IL-2 2.5 ng/mL); experiment: as above; settings: 72 h
[27] = system: SNK-6 (IL-2 2.5 ng/mL); experiment: as above; settings: 72 h
[28] = system: normal NK cells expanded with K562-aAPC; experiment: percent inhibition of viability; higher = more inhibition; settings: 72 h, IL-2 2.5 ng/mL
Description: as §1

Cc1cccc(-c2nn3c(c2-c2ccnc4ccc(C(N)=O)cc24)CCC3)n1 [Galunisertib] (max concentration tested 1000 nM)
Settings	drug sensitivity score
[1]	0
[15]	0
[16]	0
[17]	0
[18]	1.02
[19]	0
[20]	0
[21]	0
[22]	0
[23]	0
[24]	0
[25]	0
[26]	0
[27]	0

percent inhibition of viability [%]
Settings	0.1 nM	1 nM	10 nM	100 nM	1000 nM
[2]	0.38	-7.01	-9.1	-2.92	-15.2
[3]	-11	-5.65	-10	-14.2	-19.7
[4]	-3.06	-2.63	-3.58	1.78	1.58
[5]	-3.02	-1.34	-8.83	11.9	15
[6]	-14.8	-16.4	-19.5	-16.8	-23.6
[7]	-7.13	-0.55	-5.27	-8.99	-4.14
[8]	5.62	1.68	4.85	-1.77	1.92
[9]	-4.82	-4.05	-5.75	-3.29	-5.06
[10]	-4.52	0.48	-2.74	-1.09	-2.65
[11]	6.42	-19.6	-7	-11.1	-5.09
[12]	-4.42	-0.98	-7.17	0.3	-1.95
[13]	-8.56	-7.94	-11.5	-15	-20.2
[14]	4.83	20.7	0	-0.11	-19.9
[28]	-0.13	-4.95	-1.88	-4.21	-16.8

CC[C@H](C)C(=O)O[C@H]1C[C@@H](C)C=C2C=C[C@H](C)[C@H](CC[C@@H]3C[C@@H](O)CC(=O)O3)[C@H]21 [Lovastatin] (max concentration tested 10000 nM)
Settings	drug sensitivity score
[1]	0
[15]	0
[16]	0
[17]	0.36
[18]	1.12
[19]	2.39
[20]	0
[21]	0
[22]	4.64
[23]	0.22
[24]	0
[25]	0
[26]	0
[27]	0

percent inhibition of viability [%]
Settings	1 nM	10 nM	100 nM	1000 nM	10000 nM
[2]	-9.05	-11.9	-5.92	4.69	0.82
[3]	-7.92	-10.5	-6.75	-10.6	-16
[4]	1.08	0.01	-2.08	1.47	15
[5]	-2.63	-14.8	-15	10.9	16
[6]	-8.92	-7.04	-16.3	-3.47	50.5
[7]	0.36	-4.93	-3.87	-8.19	5.39
[8]	2.67	-1.74	3.23	-2.63	7.15
[9]	-0.66	-1.57	-0.61	9.14	57.5
[10]	0.53	3.49	-3.97	0.77	14
[11]	-12	-4.31	2.92	-2.72	4.38
[12]	0.32	-1.28	-1.4	5.79	9.85
[13]	-9.06	-2.92	-2.71	-5.88	-6.36
[14]	9.2	3.13	18.8	3.99	-5.4
[28]	0.56	-5.1	-9.52	-6.29	-8.93

COc1cccc2c1C(=O)c1c(O)c3c(c(O)c1C2=O)C[C@@](O)(/C(CO)=N/NC(=O)CCCCCN1C(=O)C=CC1=O)C[C@@H]3O[C@H]1C[C@H](N)[C@H](O)[C@H](C)O1 [Aldoxorubicin] (max concentration tested 1000 nM)
Settings	drug sensitivity score
[1]	11.1
[15]	9.69
[16]	9.86
[17]	13.6
[18]	12.4
[19]	28.9
[20]	16
[21]	17.6
[22]	17
[23]	14.2
[24]	12
[25]	14.7
[26]	11.3
[27]	18.9

percent inhibition of viability [%]
Settings	0.1 nM	1 nM	10 nM	100 nM	1000 nM
[2]	-11.9	-3.83	-12.3	29.5	97.6
[3]	-11.3	-10.4	0.28	31.5	97.1
[4]	3.75	-0.69	-3.82	70.5	105
[5]	-26	-23.3	-31.6	64.9	91.5
[6]	-13.6	-5.62	92.1	103	107
[7]	-3.88	-4.51	3.18	86.5	101
[8]	-4.24	-3.44	13.3	87.3	101
[9]	-4.26	-3.37	13.9	83.1	103
[10]	-11.1	-12.4	4.9	74.1	87
[11]	-14.3	-7.33	-3.29	53.2	104
[12]	-0.32	5.45	-0.18	79.9	106
[13]	-13.7	-6.33	0.42	49.2	94.5
[14]	7.67	13.7	17.1	91.1	95.2
[28]	0.3	4.21	5.36	47	101

O=S(=O)(c1cccc2cnccc12)N1CCCNCC1 [Fasudil] (max concentration tested 50000 nM)
Settings	drug sensitivity score
[1]	1.35
[15]	4.47
[16]	2.91
[17]	4.32
[18]	0.88
[19]	1.12
[20]	0
[21]	2.67
[22]	0.3
[23]	5.22
[24]	5.03
[25]	2.15
[26]	6.25
[27]	0.22

percent inhibition of viability [%]
Settings	5 nM	50 nM	500 nM	5000 nM	50000 nM
[2]	-14.3	13.1	11.4	15.1	52.8
[3]	-8.61	9.41	3.96	-0.18	54.6
[4]	-0.42	-0.99	2.43	9.94	50.6
[5]	-18	5.15	-1.43	5.51	16.6
[6]	-10.3	-10.6	-5.56	1.78	24
[7]	-3.69	1.08	-1.1	-3.21	-0.77
[8]	-1.59	2.77	2.04	10.3	31.5
[9]	-10.2	-12.7	-8.89	-1.5	17.1
[10]	-9.98	-12.1	-8.77	16.4	52.6
[11]	-0.3	-5	-7.96	16.5	50
[12]	-1.86	-2.81	-0.3	5.17	30.2
[13]	-9.61	4.29	4.21	9.95	82.7
[14]	-14.4	-9.67	-10.4	-26.7	19.7
[28]	-7	-8.84	-5.88	5.82	20.5
